Laboratory results taken from patent publication US20080319175A1, “Transthyretin Stabilization” (The Scripps Research Institute, priority 2004, published 2008).

Tests used:
WT-TTR [1] = target: T1, WT-TTR (Homo sapiens, UniProt P02766); assay: time course analysis of WT-TTR tetramer dissociation in urea (far-UV CD); format: biochemical; conditions: for rate of TTR tetramer dissociation monitored by far-UV CD: 6M urea, TTR 3.6 μM, inhibitor 7.2 and 3.6 μM; for rank in tetramer dissociation time course at the end of the plot: after 169 hours, 6.0 M urea, WT-TTR 3.6 μM
T1 construct: made in house
From the text: (§1) The ability of these inhibitors to impose kinetic stability on tetrameric TTR is best evaluated by assessing the rate of TTR tetramer dissociation (Hammarstrom, P.; et al. Science 2003, 299, 713-716; Hammarstrom, P.; et al. Proc. Natl. Acad. Sci. USA 2002, 99, 16427-16432). Under acidic conditions tetramer dissociation leads to amyloidogenesis, whereas in the presence of chaotropes (6M urea), tetramer dissociation leads to monomer unfolding. The influence of inhibitors 25, 47 and 64, representing the three structural classes of dibenzofuran-based inhibitors, on the rates of tetramer dissociation under acid- and urea-mediated denaturing conditions was probed. […] The rate of TTR tetramer dissociation in 6M urea is easily monitored by linking the slow quaternary structural changes to rapid tertiary structural changes that are easily monitored by spectroscopic methods (Hammarstrom, P.; et al. Proc. Natl. Acad. Sci. USA 2002, 99, 16427-16432).
Time course analysis of WT-TTR tetramer dissociation inhibition by compounds 25, 47, and 64 evaluated by linked-monomer unfolding in urea. Compounds 25, 47, and 64 were dissolved in DMSO to provide 10 mM primary stock solutions, from which 10-fold EtOH dilutions yielded 1 mM secondary stock solutions. 200 μL of 1.0 mg/mL (18 μM) WT-TTR solution (50 mM sodium phosphate, 100 mM KCl, and 1 mM EDTA, pH 7.2), and either 7.2 or 3.6 μL (2× and 1×, respectively) of 1 mM inhibitor secondary stock solutions were added to 2 mL eppendorf tubes, vortexed briefly, and incubated for 15 min at 25° C. 100 μL of the TTR•inhibitor solutions were added to 900 μL of urea buffer (6.67 M urea, 50 mM sodium phosphate, 100 mM KCl, 1 mM EDTA, pH 7.2), and the final 1 mL solutions were vortexed again and incubated in the dark at 25° C. without agitation. At 0, 4, 11, 24, 49, 73, 97, 122, 146, and 170 h time points after mixing with urea, the circular dichroism spectra were measured between […], with scanning every 0.5 nm and averaging for 5 s. After measurements were taken, samples were returned to their respective eppendorf tubes and incubation was continued. Control samples containing 7.2 μL of 10% DMSO in EtOH were prepared and analyzed as above for comparison. The CD amplitude values were averaged between 215 and 218 nm to determine the extent of β-sheet loss throughout the experiment. TTR tetramer dissociation is linked to the rapid (˜500,000× faster) monomer denaturation as measured through this β-sheet loss (Hammarstrom, P.; et al. Proc. Natl. Acad. Sci. USA 2002, 99, 16427-16432).
FIG. 11 is a plot of the timecourse analysis of WT-TTR (3.6 μM) tetramer dissociation (6.0 M urea) in the absence (▴) and presence of 7.2 μM (⋄) and 3.6 μM (∘) concentrations of inhibitors 25, 47, and 64 (see color scheme within Figure to differentiate inhibitors). Slow tetramer dissociation is not detectable by far-UV CD spectroscopy, but this process is linked to rapid (˜500,000× faster) monomer denaturation as monitored by loss of β-sheet content easily followed by circular dichroism spectroscopy. It is hard to discern which compound is most efficacious in the black and white plot.

WT-TTR [2] = target: T1, WT-TTR; assay: time course analysis of WT-TTR fibril formation inhibition (turbidity at 500 nm); format: biochemical; conditions: WT-TTR 3.6 μM; for TTR amyloidogenesis mediated by partial acidification relative to control: inhibitor 7.2 and 3.6 μM, pH 4.4
From the text: as §1
Time course analysis of WT-TTR fibril formation inhibition by compounds 25, 47, and 64. Compounds 25, 47, and 64 were dissolved in DMSO to provide 7.2 mM primary stock solutions (10× stocks), from which 5- and 10-fold DMSO dilutions yielded 1.44 mM (2×) and 0.72 mM (1×) secondary stock solutions, respectively. 495 μL of 0.4 mg/mL (7.2 μM) WT-TTR solution (10 mM sodium phosphate, 100 mM KCl, and 1 mM EDTA, pH 7.2), and 5 μL of either the 1.44 or 0.72 mM inhibitor secondary stock solutions were added to disposable UV cuvettes, vortexed briefly, then incubated for 30 min at 25° C. The pH was then adjusted to 4.4 with addition of 500 μL of acidic buffer (100 mM acetate, 100 mM KCl, 1 mM EDTA, pH 4.2), and the final 1 mL solutions were vortexed again and incubated in the dark at 37° C. without agitation. At 0, 4, 8, 12, 25, 49, 74, 100, 122, 145, and 169 h time points after acidification, the solutions were vortexed and the turbidity at 500 nm was measured. Control samples containing 5 μL of pure DMSO were prepared and analyzed as above for comparison. Small molecule and TTR control samples were prepared in groups of 10 to prevent disturbance of the cuvettes during incubation. Samples were discarded after their turbidities were measured.
FIG. 10 is a plot of the timecourse analysis of WT-TTR (3.6 μM) fibril formation mediated by partial acid denaturation in the absence (▴) and presence of 7.2 μM (⋄) and 3.6 μM (∘) inhibitors 25, 47, and 64, as measured by turbidity at 500 nm (see color scheme within Figure to differentiate inhibitors). It is hard to discern which compound is most efficacious in the black and white plot.

[3] = precipitation of small molecule under acid-mediated amyloidogenic conditions in the absence of TTR; format: physicochemical; conditions: 3.6 μM, pH 4.4, 37° C., 72 h
Method: TTR amyloid inhibition efficacy was probed using a stagnant fibril formation assay described previously, wherein partial denaturation was triggered by acidification (pH 4.4, 37° C.) (Colon, W.; Kelly, J. W. Biochemistry 1992, 31, 8654-8660). Briefly, a test compound (7.2 or 3.6 μM) is incubated with TTR (3.6 μM) for 30 min in pH 7 buffer. Amyloidogenesis is then initiated by lowering to pH 4.4, where maximal fibril formation is observed with WT-TTR after 72 h (37° C.). The turbidity in the presence of a potential inhibitor (Ttest) is compared to that of a solution lacking a test compound (Tcontrol). […] From experience we know that excellent inhibitors allow <10% fibril formation at a small molecule concentration of 7.2 μM and <40% fibril formation at a concentration equal to that of WT-TTR (3.6 μM) (Hammarstrom, P.; et al. Science 2003, 299, 713-716; Klabunde, T.; et al. Nature Struct. Biol. 2000, 7, 312-321; Razavi, H.; et al. Angew Chem 2003, 42, 2758-2761; Miroy, G. J.; et al. Proc. Natl. Acad. Sci. USA 1996, 93, 15051-15056; Peterson, S. A.; et al. Proc. Natl. Acad. Sci. USA 1998, 95, 12956-12960; Baures, P. W.; et al. Bioorg. Med. Chem. 1998, 6, 1389-1401; Baures, P. W.; et al. Bioorg. Med. Chem. 1999, 7, 1339-1347; Petrassi, H. M.; et al. J. Am. Chem. Soc. 2000, 122, 2178-2192; McCammon, M. G.; et al. Structure 2002, 10, 851-863; Oza, V. B.; et al. J. Med. Chem. 2002, 45, 321-332; Sacchettini, J. C.; et al. Nature Rev. Drug Disc. 2002, 1, 267-275; Green, N. S.; et al. J. Am. Chem. Soc. 2003, 125, 13404-13414; Adamski-Werner, S. L.; et al. J. Med. Chem. 2004, 47, 355-374; Miller Sean, R.; et al. Lab. Inv. 2004, 84, 545-552). […] Therefore, when both the ligand and TTR are at equal concentrations, a population of TTR•I, TTR•I2 and unliganded TTR is observed, dictated by the dissociation constants. It is now established by other studies that inhibitor occupancy of only one of the two TTR binding sites is sufficient to stabilize the entire tetramer against amyloidogenesis (Wiseman, R. L.; et al. J. Am. Chem. Soc. 2005, in press). This is further supported by the observation herein that twenty-six of these dibenzofurans are excellent TTR amyloidogenesis inhibitors (<40% fibril formation) at a concentration equal to that of TTR (3.6 μM each, FIG. 3).

SMILES: O=C(O)c1cccc2c1oc1c(C(=O)O)ccc(-c3cc(C(F)(F)F)cc(C(F)(F)F)c3)c12 [Compound 64]
- rate of TTR tetramer dissociation monitored by far-UV CD (WT-TTR [1]): markedly slowed in a dose-dependent fashion
- rank in tetramer dissociation time course at the end of the plot (WT-TTR [1]): followed by compound 64
- TTR amyloidogenesis mediated by partial acidification relative to control (WT-TTR [2]): dramatically slowed in a dose-dependent fashion

SMILES: O=C(O)c1cccc2c1oc1c(C(=O)O)ccc(Oc3cc(Cl)cc(Cl)c3)c12 [Compound 47]
- rate of TTR tetramer dissociation monitored by far-UV CD (WT-TTR [1]): markedly slowed in a dose-dependent fashion
- precipitation of compound in the absence of TTR [3]: no measurable precipitation
- rank by fibrils formed at the end of the time course (WT-TTR [2]; after 169 hours, partial acid denaturation): shows the most fibrils formed
- TTR amyloidogenesis mediated by partial acidification relative to control (WT-TTR [2]): dramatically slowed in a dose-dependent fashion

SMILES: O=C(O)c1cccc2c1oc1c(C(=O)O)ccc(Nc3ccccc3C(F)(F)F)c12 [Compound 25]
- rate of TTR tetramer dissociation monitored by far-UV CD (WT-TTR [1]): markedly slowed in a dose-dependent fashion
- rank in tetramer dissociation time course at the end of the plot (WT-TTR [1]): most effective in dissociating tetramers
- precipitation of compound in the absence of TTR [3]: no measurable precipitation
- TTR amyloidogenesis mediated by partial acidification relative to control (WT-TTR [2]): dramatically slowed in a dose-dependent fashion
